Reference: patent US20040082623A1, “Fmoc-l-leucine and derivatives thereof as ppar-gamma agonists” (priority 2003, published 2004)

Assays:
PPARγ = target: T1, PPARγ (Homo sapiens, UniProt P37231); test: Protease protection (partial trypsin digestion of 35S-PPARγ); assay type: binding; conditions: compound 10^−4M, increasing trypsin
T1 construct: a construct containing the entire cDNA of the human PPARγ2 (hPPARγ2); host or cells: cell-free coupled transcription/translation system
T1 sequence (P37231 1-505): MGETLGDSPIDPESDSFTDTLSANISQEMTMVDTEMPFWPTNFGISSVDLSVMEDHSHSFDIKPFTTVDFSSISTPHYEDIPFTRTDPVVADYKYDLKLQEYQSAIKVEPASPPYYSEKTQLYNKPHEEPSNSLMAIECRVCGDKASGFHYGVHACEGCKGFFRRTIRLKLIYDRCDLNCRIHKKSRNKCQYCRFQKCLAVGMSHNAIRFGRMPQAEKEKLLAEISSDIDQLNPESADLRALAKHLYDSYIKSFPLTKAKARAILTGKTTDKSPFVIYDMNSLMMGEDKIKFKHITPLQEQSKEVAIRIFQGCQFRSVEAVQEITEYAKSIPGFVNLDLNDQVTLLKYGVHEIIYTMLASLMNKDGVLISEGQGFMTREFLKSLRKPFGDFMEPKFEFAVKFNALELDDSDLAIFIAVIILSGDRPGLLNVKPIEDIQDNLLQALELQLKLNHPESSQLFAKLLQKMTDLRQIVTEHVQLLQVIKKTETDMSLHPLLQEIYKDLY
Protocol: The pSG5-hPPARγ2 plasmid was used to synthesize ? ^35S-radiolabeled PPARγ in a coupled transcription/translation system according to the protocol of the manufacturer (Promega, Madison, Wis.). The transcription/translation reactions were subsequently aliquoted into 22.5 μl and 2,5 μl of phosphate buffered saline +/− compound were added. The mixture was separated into 4.5 μl aliquots and 0.5 μl of distilled water or distilled water-solubilized trypsin were added. The protease digestion were allowed to proceed for 10 min at 25° C. and terminated by the addition denaturing loading buffer. After separation of the digestion products in a gel SDS ? PAGE 12% acrylamide, the gel was fixed in 10% acetic acid (v/v) 30% ethanol (v/v) ? for 30 min, treated in Amplify™ (Amersham, Orsay, France) and dried. The radiolabeled digestion products were visualized by autoradiography.

PPARγ2 [1] = target: T2, PPARγ2 (Homo sapiens, UniProt P37231); test: Transient transfection, PPARγ2 reporter in CV1 cells; assay type: cell-based; parameters: a construct containing the entire cDNA of the human PPARγ2 (hPPARγ2); expressed in transfected cells; host or cells: Hep G2, RK13 or CV1 cells; conditions: simian renal cells CV1
T2 sequence (P37231 1-505): T1 sequence (P37231 1-505)
Protocol: (§1) RK13 cells (A and D), CV1 cells (B) or Hep G2 cells (C) were co-transfected with an expression vector for PPARγ2 (0.1 μg/well), pGL3-(Jwt)3TKLuc reported construct (0.5 μg/well), and pCMV-βGal (0.5 μg/well), as a control of transfection efficiency (0.5 μg/well). They were then grown during 24 h in the presence or absence of indicated compound. Activation is expressed as relative luciferase activity/β ? galactosidase activity. Each point was performed in triplicate, and each figure i ? representative of four independent experiments.
The CV1, RK-13, and Hep G2 cell lines were obtained from ATCC (Rockville, Md.). Cells were maintained in Dulbecco's modified Eagle's minimal essential medium (DMEM) supplemented with 10% fetal calf serum (FCS), L-glutamine, and antibiotics. Transfections with chloramphenicol acetyltransferase (CAT) or luciferase (luc.) reporter constructs were carried out exactly as described previously (Schoonjans et al., 1996). The pGL3-(Jwt)3TKLuc and the pGL3-(Jwt)3TKCAT reporter constructs contain both three tandem repeats of the J site of the apolipoprotein A-II promoter cloned upstream of the herpes simplex virus thymidine kinase (TK) promoter and the luciferase or the CAT reporter genes respectively (Vu-Dac et al., 1995). […]

PPARγ2 [2] = target: T2, PPARγ2; test: Transient transfection, PPARγ2 reporter in RK13 cells; assay type: cell-based; parameters: a construct containing the entire cDNA of the human PPARγ2 (hPPARγ2); expressed in transfected cells; host or cells: Hep G2, RK13 or CV1 cells
Protocol: as §1
The CV1, RK-13, and Hep G2 cell lines were obtained from ATCC (Rockville, Md.). Cells were maintained in Dulbecco's modified Eagle's minimal essential medium (DMEM) supplemented with 10% fetal calf serum (FCS), L-glutamine, and antibiotics. Transfections with chloramphenicol acetyltransferase (CAT) or luciferase (luc.) reporter constructs were carried out exactly as described previously (Schoonjans et al., 1996). The pGL3-(Jwt)3TKLuc and the pGL3-(Jwt)3TKCAT reporter constructs contain both three tandem repeats of the J site of the apolipoprotein A-II promoter cloned upstream of the herpes simplex virus thymidine kinase (TK) promoter and the luciferase or the CAT reporter genes respectively (Vu-Dac et al., 1995). The following expression vectors were used; pSG5-hPPARγ2, a construct containing the entire cDNA of the human PPARγ2 (hPPARγ2) (Fajas et al., 1997); pSG5-mPPARα (Isseman et al., 1993); and pCMV-βGal, as a control of transfection efficiency.

PPARγ DE/p300Nt-GST = PPARγ DE/p300Nt-GST (Homo sapiens, UniProt P37231)
Chain of PPARγ DE/p300Nt-GST (Q09472 2-516 partner limits assumed, one chain of several): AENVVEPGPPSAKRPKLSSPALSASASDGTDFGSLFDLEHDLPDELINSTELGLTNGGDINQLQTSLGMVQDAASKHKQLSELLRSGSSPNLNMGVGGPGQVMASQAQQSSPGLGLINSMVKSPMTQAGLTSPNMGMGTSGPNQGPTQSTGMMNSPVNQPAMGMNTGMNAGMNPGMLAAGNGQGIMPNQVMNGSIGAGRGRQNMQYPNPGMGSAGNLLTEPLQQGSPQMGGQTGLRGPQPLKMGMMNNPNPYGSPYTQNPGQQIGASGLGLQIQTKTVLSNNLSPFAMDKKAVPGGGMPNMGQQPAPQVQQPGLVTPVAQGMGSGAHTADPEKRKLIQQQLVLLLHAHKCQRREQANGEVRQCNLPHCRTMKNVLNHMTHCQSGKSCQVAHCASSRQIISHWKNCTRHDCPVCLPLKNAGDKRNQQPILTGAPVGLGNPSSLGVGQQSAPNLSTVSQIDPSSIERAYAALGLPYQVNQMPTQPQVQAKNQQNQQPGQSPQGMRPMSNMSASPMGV
Description: The beads were then washed and the samples separated on SDS-PAGE and blotted. The blot was developed with anti-histidine antibodies.
The p300Nt-GST, fusion protein was generated by cloning the N-terminal part of the p300 protein (a.a. 2 to 516) downstream of the glutathione-S-transferase (GST) protein in the pGex-T1 vector (Pharmacia, Orsay, France). The fusion proteins were then expressed in Escherichia coli and purified on a glutathione affinity matrix (Pharmacia). Human PPARγ (aa. 203 to 477 of PPARγ) was subcloned into the pET15b (Novagen, Madison, Wis.) expression vector. The his-tagPPARγ2DE203-477 proteins were produced as follow. The protein was purified using a metal chelate affinity column with an affinity column Co^2+ coupled agarose (High Trap chelatin, Pharmacia). The protein was eluted with 20 mM Tris-HCl, 500 M NaCl, 130 mM imidazole and 1-2 propanediol 2.5% (pH 8.5). A second purification step was made by gel filtration (Superdex 200 16/60, Pharmacia). The protein was eluted with 20 mM Tris-HCl, 100 mM NaCl, 5 mM DTT and 1-2 propanediol 2,5% (pH 8.5).

CC(C)CC(NC(=O)OCC1c2ccccc2-c2ccccc21)C(=O)O [F-L-Leu, N-(9-fluroroenylmethyloxycarbonyl)-L-Leucine]
protection of PPARγ from trypsin digestion (conformation change) (PPARγ): produced a protease protection
concentration required for optimal PPARγ activation (PPARγ2 [1]): 10^−5 M
concentration giving maximal PPARγ activation (PPARγ2 [2]; RK13 cells): 10^−5 M
modification of PPARγ activity when added to a saturating concentration of rosiglitazone (PPARγ2 [2]; RK13 cells, 10^−5 M added): No significant modification
concentration of optimal PPARγ activity / activation (PPARγ2 [2]; rabbit kidney RK13 cells): 10^−5 M
potency relative to rosiglitazone (fold lower) (PPARγ DE/p300Nt-GST; p300 pull-down): 2- to 3 fold
formation of PPARγ DE/p300Nt-GST complexes (PPARγ DE/p300Nt-GST; vs DMSO, rosiglitazone 10^−4 M, F-L-Leu 10^−3 M): effectively induced
